Common to all, as to experiment: NCI-60 cell line screen, 48 h
Assay [1] concerns CCRF-CEM.
For assay [2], the system named is HCT-116.
Assay [3] has as its system HCT-15.
The subject of assay [4] is HOP-62.
Assay [5] has as its system HOP-92.
Assay [6] relates to Malme-3M.
Assay [7] deals with NCI-H23.
Assay [8] deals with NCI/ADR-RES.
Assay [9] deals with OVCAR-3.
Assay [10] deals with OVCAR-4.
The subject of assay [11] is SF-268.
Assay [12] deals with SK-MEL-5.
In assay [13] the test system is SK-OV-3.
Assay [14] relates to SR.
The subject of assay [15] is SW-620.
The test system of assay [16] is T47D.
The subject of assay [17] is TK-10.
The subject of assay [18] is U-251.
In assay [19] the test system is NCI-H522.

Each structure is given as a SMILES string.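 The compound was tested at five concentrations on cells cultured in 96-well plates, with a 48-hour exposure period. At the GI50, growth is halved.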 Calls of active or inactive are those of the source. Rule as the data show it: active = GI50 up to about 1.1 µM and inactive = higher.

As for `CCOC(=O)CON=c1c2ccccc2ccc2ccccc12`, the GI50 in assay [1] is > 100 µM (inactive); in assay [2], > 100 µM (inactive); in assay [3], above 100 µM; in [4], > 100 µM (inactive); in [5], > 100 µM (inactive); in assay [6], > 100 µM (inactive). The GI50 in assay [7], in assay [8], in assay [9], in assay [10], in assay [11] and in assay [12] was > 100 µM (inactive) in each case. In addition, the GI50 in [13], in [14], in [15], in [16], in [17] and in [18] was > 100 µM (inactive) throughout.
On to `CCOC(=O)CCC(NC(=O)c1ccc(OCc2nc3cc(C(F)(F)F)ccc3nc2-c2ccccc2)cc1)C(=O)OCC` (stereo not given), for which the GI50 is 58.2 µM (inactive) in assay [1]; 52.2 µM (inactive) in assay [2]; 68.2 µM in assay [3]; 79.6 µM (inactive) in assay [5]; 87.3 µM (inactive) in assay [6]; 85.3 µM (inactive) in [7]. Further, the GI50 in assay [19] was > 100 µM (inactive); in assay [8], 54 µM (inactive); in assay [9] it was 79.1 µM (inactive); in [10], 13.7 µM (inactive); in assay [11], 37.3 µM (inactive); in assay [12] it was 31.6 µM (inactive). For the same compound, the GI50 is > 100 µM (inactive) in assay [13]; 16.4 µM (inactive) in assay [14]; > 100 µM (inactive) in assay [15]; 20.4 µM (inactive) in assay [16]; > 100 µM (inactive) in [18].
As for `O=c1[nH]/c(=C/c2ccc(OCc3ccccc3)cn2)c(=O)[nH]/c1=C/c1ccccc1`, the GI50 in assay [1] is 0.126 µM (active); in assay [2] it was 0.146 µM (active); in assay [3] it was 0.135 µM; in assay [4], 0.239 µM (active); in assay [5], 14.3 µM (inactive); in assay [7] it was 0.107 µM (active). The GI50 in assay [19] was 0.0942 µM (active); in assay [8], 0.0794 µM (active); in assay [9], 0.114 µM (active); in [10], 0.465 µM (active); in assay [11] it was 0.206 µM (active); in assay [12] it was 0.106 µM (active). In addition, the GI50 in assay [13] is 0.531 µM (active); in assay [14], 0.289 µM (active); in assay [15], 0.158 µM (active); in assay [16], > 24.7 µM (inactive); in assay [17], 0.164 µM (active); in assay [18], 0.119 µM (active).
With `C(/c1ccco1)=c1/nc(-c2ccccc2)n2c1nc1ccccc12`, the GI50 in assay [1] was 16.6 µM (inactive); in assay [2], 15.5 µM (inactive); in assay [3], 97.3 µM; in assay [4] it was 2.05 µM (inactive); in [5], 38.1 µM (inactive); in assay [6], 16.4 µM (inactive). The GI50 in [7] was 35.2 µM (inactive); in assay [8], 23.4 µM (inactive); in [9] it was 9.06 µM (inactive); in [10] it was 20.5 µM (inactive); in assay [11], 31.4 µM (inactive); in assay [12], 20.6 µM (inactive). Also, the GI50 in assay [13] was 22.4 µM (inactive); in assay [14] it was 11.4 µM (inactive); in assay [15], 21.7 µM (inactive); in assay [16] it was 1.08 µM (active); in assay [17], 34.8 µM (inactive); in assay [18], 40.6 µM (inactive).
As for `COc1cccc2c1OC1(C=C2)Oc2ccccc2C(=O)N1C` (stereo not given), the GI50 is 12.2 µM (inactive) in assay [1]; 37.6 µM (inactive) in [2]; 32.5 µM in [3]; 51.5 µM (inactive) in [4]; 35.2 µM (inactive) in [5]; 31.2 µM (inactive) in assay [7]. Besides, the GI50 in [19] was 19.1 µM (inactive); in assay [8], 3.91 µM (inactive); in [9] it was 37.8 µM (inactive); in assay [10] it was 45.3 µM (inactive); in assay [11], 34.3 µM (inactive); in assay [12], 68.1 µM (inactive). Besides, the GI50 in [13] was 25.9 µM (inactive); in assay [14], 3.55 µM (inactive); in assay [15], 42.7 µM (inactive); in assay [16] it was 31.9 µM (inactive); in assay [17], 24.9 µM (inactive); in assay [18], 39.8 µM (inactive).
In the case of `O=C(O)c1nc2cc(C(F)(F)F)ccc2nc1Nc1ccc(F)cc1`, the GI50 was 12.6 µM (inactive) in assay [1]; 15.4 µM (inactive) in [2]; 13.5 µM (inactive) in assay [5]; 12.4 µM (inactive) in assay [6]; 16 µM (inactive) in assay [7]; 7.5 µM (inactive) in assay [19]. The GI50 is 20 µM (inactive) in [8]; 15.8 µM (inactive) in [9]; 22.3 µM (inactive) in assay [11]; 16.2 µM (inactive) in assay [12]; 30.7 µM (inactive) in [13]; 17.1 µM (inactive) in [14]. Also, the GI50 in assay [15] is 17.3 µM (inactive); in assay [16] it was 20.2 µM (inactive); in assay [17], 20 µM (inactive); in assay [18], 18.3 µM (inactive).
With `CC12CCC(C1)C(C)(C)C2OC(=O)c1ccccc1N` (stereo not given), the GI50 in assay [1] was 0.678 µM (active); in assay [2], 13.5 µM (inactive); in assay [3], 15.9 µM; in assay [4], 16.9 µM (inactive); in assay [5], 11.8 µM (inactive); in assay [6], 13.4 µM (inactive). Besides, the GI50 in assay [7] was 15.7 µM (inactive); in [19], 10.1 µM (inactive); in [8], 16.6 µM (inactive); in assay [9], 15.2 µM (inactive); in assay [11], 16.8 µM (inactive); in assay [12] it was 17 µM (inactive). In addition, the GI50 was 16.7 µM (inactive) in [13]; 8.24 µM (inactive) in [14]; 15.5 µM (inactive) in [15]; 14.9 µM (inactive) in assay [16]; 16.9 µM (inactive) in assay [17]; 17.6 µM (inactive) in [18].
As to `O=S1(=O)CCN(Cc2ccccc2)/C1=N\S(=O)(=O)c1ccc(Cl)cc1`, the GI50 in [1] is 24.9 µM (inactive); in assay [2] it was 18.5 µM (inactive); in assay [3], 20.3 µM; in assay [4], 65.2 µM (inactive); in assay [5], 18.6 µM (inactive); in [7] it was 18.9 µM (inactive). Moreover, the GI50 was 14.5 µM (inactive) in [19]; 16.6 µM (inactive) in [8]; 19.4 µM (inactive) in assay [9]; 18.8 µM (inactive) in assay [10]; 16.6 µM (inactive) in [11]; 21.2 µM (inactive) in assay [12]. In addition, the GI50 in [13] was 47.4 µM (inactive); in assay [14], 24.2 µM (inactive); in assay [15] it was 19.1 µM (inactive); in assay [16], 22.2 µM (inactive); in assay [17], 17 µM (inactive); in assay [18], 18 µM (inactive).
In the case of `NC(=O)c1ncn(C2CCC(CP(=O)(O)O)C2)c1N` (stereo not given), the GI50 in assay [2] is > 100 µM (inactive); in [3], above 100 µM; in assay [4], > 100 µM (inactive); in assay [5], > 100 µM (inactive); in [6], > 100 µM (inactive); in assay [7], > 100 µM (inactive). Further, the GI50 in assay [8], in [9], in assay [10], in assay [11], in assay [12] and in assay [13] was > 100 µM (inactive) throughout. Further, the GI50 in assay [14], in [15], in assay [16], in [17] and in [18] was > 100 µM (inactive) each time.
Turning to `Cc1c2oc(=O)c(C#N)cc2c2ccccn12`, the GI50 in [1] was > 100 µM (inactive); in assay [2] it was 37.6 µM (inactive); in assay [3], 89.9 µM; in [5] it was > 100 µM (inactive); in assay [6], 97.3 µM (inactive); in assay [7] it was 7.64 µM (inactive). Further, the GI50 in assay [8] was > 100 µM (inactive); in assay [9], 17.3 µM (inactive); in [10] it was > 100 µM (inactive); in [11], > 100 µM (inactive); in assay [12], > 100 µM (inactive); in assay [13], > 100 µM (inactive). In addition, the GI50 in [14] was > 100 µM (inactive); in assay [15], > 100 µM (inactive); in [16] it was > 100 µM (inactive); in assay [17], > 100 µM (inactive); in assay [18] it was 99.3 µM (inactive).
With `CC(=O)NC1=C(NCCCl)C(=O)c2ccccc2C1=O`, the GI50 in assay [1] is 19.1 µM (inactive); in assay [2] it was 20.5 µM (inactive); in assay [3], 32.1 µM; in assay [4], 64 µM (inactive); in assay [5] it was 56.6 µM (inactive); in [6], 13.9 µM (inactive). Further, the GI50 in [7] is 26.1 µM (inactive); in [19] it was 20.5 µM (inactive); in assay [8], 29.5 µM (inactive); in assay [9], 49.5 µM (inactive); in assay [10], 44.6 µM (inactive); in assay [11], 59.8 µM (inactive). The GI50 is 16.9 µM (inactive) in [12]; 59.2 µM (inactive) in assay [13]; 30.8 µM (inactive) in assay [14]; 25.4 µM (inactive) in assay [15]; 25.1 µM (inactive) in assay [16]; 39.1 µM (inactive) in assay [18].
As to `O=C(O)CN1CCN(CC(=O)O)CCN(CC(=O)O)CCN(CC(=O)O)CC1` [TETRAXETAN], the GI50 in assay [1] was > 100 µM (inactive); in [2], > 100 µM (inactive); in assay [3], above 100 µM; in assay [4], > 100 µM (inactive); in [5] it was > 100 µM (inactive); in [7], > 100 µM (inactive). Also, the GI50 in assay [19], in assay [8], in assay [9], in assay [10], in assay [11] and in assay [12] was > 100 µM (inactive) throughout. Further, the GI50 in [14], in [15], in assay [16], in assay [17] and in assay [18] was > 100 µM (inactive) in each case.

(Values after ChEMBL document CHEMBL1201862, “PubChem BioAssay data set” (2004).)
